Assay results taken from US7256215B2, “Crystals of 5-hydroxycarbamimidoyl-2-hydroxybenzenesulfonamide derivative” (Kissei Pharmaceutical Co., Ltd., priority 2002, dated 2007).
Read-outs that look alike come from different tables or passages of the source.

Legend:
[1] = Storage stability test (residual rate by HPLC); assay type: physicochemical; settings: hydrochloride; for Residual Rate (%): storage at 40° C./90% relative humidity for two months, HPLC; for Storage stability (in words): stored for a long period
Procedure: (Storage Stability Test) Stability test was carried out under a storage condition of 40° C./90% relative humidity for two months for test substances. The residual rates of test substances were determined by HPLC according to the following conditions. HPLC Condition: • Detection wavelength; 225 nm • Column; CAPCELL PAK C18, MG 5 μm, 3.0 mm I.D.×250 mm • Column temperature; 35° C. • Mobile phase; • 0.02 mol/L phosphate buffer (pH 6.0): acetonitrile mixed solvent • 0→20 min; 42:58 • 20→40 min; 42:58→70:30 • 40→45 min; 70:30 • Flow rate; 0.5 mL/min

[2] = test system: prothrombin time (PT); test: Prothrombin time (PT) in plasma of orally dosed rats; assay type: in vivo, Male Wistar rats; settings: PT after administration / before administration; rat plasma, oral, 6.0 mg/mL suspension, 5.0 mL/kg, 30 minutes
Procedure: (Measurement of Activated Blood Coagulation Factor X Inhibitory Activity and Prothrombin Time (PT)) Male Wistar rats aged 6-9 weeks (SLC) fasted overnight were used. Test substances were suspended in 0.5% methylcellulose solution at the concentration of 6.0 mg/mL. Then 5.0 mL/kg of those was orally administrated into the rats. Then, 30 minutes before and after the administration of the test substances, citrated (1:10 dilution, 3.13% sodium citrate) bloods were collected from the jugular vein. Plasma samples were obtained by centrifugation. Effects of test substances on activated blood coagulation factor X and prothrombin time (PT) were investigated using the plasma samples according to the following procedures. 2) Prothrombin Time (PT). Fifty μL of plasma was put in the process tube and then incubated at 37° C. One minute later, 100 mu L of plasma PT reagent (Boehringer Mannheim) prewarmed at 37° C. was added into the mixture. PT was measured with a coagulometer (ST4, Boehringer Mannheim). The ratio of PT at each time point after administration of the test substance to that of before administration was used as the index of anticoagulation activity.

[3] = molecular target: T1, activated blood coagulation factor X (Homo sapiens, UniProt P00742); test: Activated blood coagulation factor X inhibitory activity in plasma of orally dosed rats; assay type: in vivo, Male Wistar rats; design: purchased Calbiochem; settings: rat plasma 30 minutes after oral administration; 6.0 mg/mL suspension in 0.5% methylcellulose, 5.0 mL/kg
Procedure: (Measurement of Activated Blood Coagulation Factor X Inhibitory Activity and Prothrombin Time (PT))
Male Wistar rats aged 6-9 weeks (SLC) fasted overnight were used. Test substances were suspended in 0.5% methylcellulose solution at the concentration of 6.0 mg/mL. Then 5.0 mL/kg of those was orally administrated into the rats. Then, 30 minutes before and after the administration of the test substances, citrated (1:10 dilution, 3.13% sodium citrate) bloods were collected from the jugular vein. Plasma samples were obtained by centrifugation. Effects of test substances on activated blood coagulation factor X and prothrombin time (PT) were investigated using the plasma samples according to the following procedures.
1) Activated Blood Coagulation Factor X Inhibitory Activity
2.5 μL of plasma sample, 200 μL of 100 mM tris-200 mM NaCl buffer (pH 8.4) and 10 μL of 0.06 U/mL human activated blood coagulation factor X (Calbiochem) in gelatin-glycine buffer were poured into 96 well microplate. […] The reaction was terminated with the addition of 50 μL of 60% acetic acid and absorbance (405 nm) was measured by a microplate reader (SPECTRAmax250, Molecular Devices). […] The inhibitory % of plasma sample was calculated from absorbance of the control as 100% and this value was used as the index of anti-activated blood coagulation factor X activity in plasma.
Target sequence in this assay (P00742 235-488 limits assumed): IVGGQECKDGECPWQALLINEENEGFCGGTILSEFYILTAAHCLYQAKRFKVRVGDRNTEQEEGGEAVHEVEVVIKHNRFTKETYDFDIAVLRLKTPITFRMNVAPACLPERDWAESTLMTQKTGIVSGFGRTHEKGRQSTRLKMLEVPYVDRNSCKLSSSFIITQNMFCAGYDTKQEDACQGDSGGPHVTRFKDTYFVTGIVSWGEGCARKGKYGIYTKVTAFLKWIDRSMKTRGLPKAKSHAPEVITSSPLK
Target sequence in this assay (P00742 41-179 limits assumed): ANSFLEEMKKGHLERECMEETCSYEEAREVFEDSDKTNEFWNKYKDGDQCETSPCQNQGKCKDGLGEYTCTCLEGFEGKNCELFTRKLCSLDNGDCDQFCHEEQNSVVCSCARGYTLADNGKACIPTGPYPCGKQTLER

[4] = Oral bioavailability (statement, no method given); assay type: in vivo
[5] = Saturated water solubility; assay type: physicochemical; settings: for solubility: thermodynamic from solid, water
Procedure: (Saturated Water Solubility) Approximately 40 mg of test substances is placed in a vessel, and approximately 15 mL of water is added thereto to suspend. The suspensions are warmed at 37° C. with stirring, and approximately 1 mL of aliquots is collected with time. Each of aliquots is filtered through a 0.45 μm filter. Thereafter, 500 μL is taken accurately from the filtrate, and 500 μL of a mixed solvent of water/acetonitrile (1/1) is added thereto to prepare a test solution. Five μL of the test solution is analyzed by a high performance liquid chromatography method according to the following conditions. Among water solubilities at each point of test solutions, the highest concentration is estimated as a saturated water solubility. HPLC Condition: • Detection wavelength; 225 nm • Column; Inertsil ODS-3, 5 μm, 4.6 mm I.D.×250 mm • Column temperature; 30° C. • Mobile phase; • 0.02 mol/L phosphate buffer (pH 3.0): acetonitrile mixed solvent • 0→30 min; 42:58 • Flow rate; […] • Measurement time; 30 min

[6] = Storage under ordinary conditions, retention of crystalline form; assay type: physicochemical; settings: 25° C./60% relative humidity, long period
[7] = molecular target: T1, activated blood coagulation factor X; test: Inhibitory activity against activated blood coagulation factor X (statement, no method given); assay type: biochemical
Target sequence in this assay (P00742 235-488 limits assumed): as the sequence (P00742 235-488 limits assumed) above
Target sequence in this assay (P00742 41-179 partner limits assumed): as the sequence (P00742 41-179 limits assumed) above

CCCCOC(=O)COc1cc(-c2ccccc2S(C)(=O)=O)ccc1CCNS(=O)(=O)c1cc(C(=N)NO)ccc1O.Cl [Example 1, n-butyl[4-[2-[2-hydroxy-5-(N-hydroxycarbamimidoyl)benzenesulfonylamino]ethyl]-2′-methanesulfonylbiphenyl-3-yloxy]acetate hydrochloride]
Residual Rate (%) [1]: 99.0%
Storage stability (in words) ([1]; listed as crystalline form B): good storage stabilities
Ratio of PT [2]: 1.50
inhibition at 6000 µg/mL (stock) [3]: 58.2%
Oral bioavailability (in words) [4]: good oral bioavailability
Water solubility (in words) [5]: highly water-soluble
solubility ([5]; 37° C., highest concentration over time, read-out: Saturated water solubility): 1600 µg/mL
Stability of crystalline form on storage (in words) [6]: without changing its crystalline form

CCCCOC(=O)COc1cc(-c2ccccc2S(C)(=O)=O)ccc1CCNS(=O)(=O)c1cc(C(=N)NO)ccc1O.Cl [Reference Example 1, n-butyl[4-[2-[2-hydroxy-5-(N-hydroxycarbamimidoyl)benzenesulfonylamino]ethyl]-2′-methanesulfonylbiphenyl-3-yloxy]acetate hydrochloride]
Residual Rate (%) [1]: 96.8%
Storage stability (in words) ([1]; listed as crystalline form A): unsatisfactory stabilities

CCCCOC(=O)COc1cc(-c2ccccc2S(C)(=O)=O)ccc1CCNS(=O)(=O)c1cc(C(=N)NO)ccc1O.Cl.O [Reference Example 2, n-butyl[4-[2-[2-hydroxy-5-(N-hydroxy-carbamimidoyl)benzenesulfonylamino]ethyl]-2′-methanesulfonylbiphenyl-3-yloxy]acetate hydrochloride monohydrate]
Water solubility (in words) [5]: poor water solubility
solubility ([5]; 37 °C): 270 µg/mL

CCCCOC(=O)COc1cc(-c2ccccc2S(C)(=O)=O)ccc1CCNS(=O)(=O)c1cc(C(=N)NO)ccc1O.Cl [formula (I), n-Butyl[4-[2-[2-hydroxy-5-(N-hydroxycarbamimidoyl)benzenesulfontylamino]ethyl]-2′-methanesulfonylbiphenyl-3-yloxy]acetate hydrochloride]
Inhibitory activities against activated blood coagulation factor X (in words) [7]: excellent inhibitory activities
